Read-outs that look alike come from different tables or passages of the source. Square brackets hold non-standard residues; d marks the D form. Peptide text beside a SMILES is read from it. * marks the point of attachment. Ala(6-iPr-benzothiazol-2-yl) = CC(C)c1ccc2nc(C[C@H](N)C(=O)O)sc2c1; Gly(piperidin-4-yl) = N[C@H](C(=O)O)C1CCNCC1; Isobutyryl = CC(C)C(=O)*; Propionyl = CCC(=O)*
Molecular target: DCN1 (Homo sapiens (Human), UniProt Q96GG9)
Test: Competitive FP binding assay
Experimental: Competitive FP Binding Assay
The Fluorescence Polarization (FP) competitive binding assays were performed to accurately determine the binding affinities of our DCN1 inhibitors. […] Serial dilutions of proteins were mixed with 46 to a final volume of 200 μl in the assay buffer (100 mM phosphate buffer, pH=6.5, with 0.02% Tween-20 and 2% DMSO). Final probe concentration was 5 nM for both assays. Plates were incubated at room temperature for 30 minutes with gentle shaking to assure equilibrium.
Pure proteins were derived from the same expression and purification protocols. Plasmids were transformed into Rosetta2 cells, the cells were grown in Terrific Broth at 37° C. to an O.D.600>1.0 and induced with 0.4 mM Isopropyl (3-D-1-thiogalactopyranoside overnight at 20° C. The pelleted cells were resuspended in lysis buffer containing 25 mM Tris-HCl, pH 7.5, 200 mM NaCl and protease inhibitors, sonicated and centrifuged at 34,000×g for 45 minutes to remove debris. Cleared lysate was incubated with Ni-NTA resin (Qiagen) prewashed with lysis buffer, for 1 hr at 4° C. The matrix was loaded into a column then washed with 25 mM Tris-HCl, pH 7.5, 200 mM NaCl and 10 mM imidazole. Protein was eluted with 25 mM Tris-HCl, pH 7.5, 200 mM NaCl and 300 mM imidazole, concentrated and applied to a Superdex 75 (GE Healthcare) column pre-equilibrated with 25 mM Tris pH 7.5, 200 mM NaCl and 1 mM DTT. For DCN2-5, the N-terminal His6 tag was removed prior to gel filtration. Tag removal was achieved through incubation with TEV protease during overnight dialysis against 25 mM Tris pH 7.5, 200 mM NaCl and 1 mM DTT and a second Ni-NTA column. DCN2-5 proteins were stored at −80° C. in 1 mg/mL fractions containing 5% glycerol. The uncleaved DCN1 protein was stored at −80° C. without glycerol.

[1] = read-out: Binding affinity to DCN1 (IC50 (nM))
[2] = bounds given in μM, read-out: Binding affinity to DCN1 (IC50)

DCN1, sequence (Q96GG9 58-259): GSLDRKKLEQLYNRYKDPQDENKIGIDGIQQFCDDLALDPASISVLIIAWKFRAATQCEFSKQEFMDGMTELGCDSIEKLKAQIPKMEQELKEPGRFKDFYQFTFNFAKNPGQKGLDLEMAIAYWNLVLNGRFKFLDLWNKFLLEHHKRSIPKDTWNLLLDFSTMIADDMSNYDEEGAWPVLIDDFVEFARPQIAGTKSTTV

| Compound | IC50 [1] | IC50 [2] |
| --- | --- | --- |
| CCC(=O)N[C@@H](Cc1nc2ccc(C(C)C)cc2s1)C(=O)N[C@H](CO)C1CCCCC1 [Example 81, (S)—N—((S)-1-cyclohexyl-2-hydroxyethyl)-3-(6-isopropylbenzo[d]thiazol-2-yl)-2-propionamidopropanamide] | 127 nM | – |
| CC[C@H](C)[C@@H](CN)NC(=O)[C@H](Cc1nc2ccc(C(C)C)cc2s1)NC(=O)NC [Example 52, (S)—N-((2S,3S)-1-amino-3-methylpentan-2-yl)-3-(6-isopropylbenzo[d]thiazol-2-yl)-2-(3-methylureido)propanamide] | 558 ± 125 nM | – |
| CCC(=O)N[C@@H](Cc1nc2ccc(C(C)C)cc2s1)C(=O)N[C@H](CNC(=O)C1CCN(C2COC2)CC1)C1CCCCC1 [Example 63] | 67.3 nM | – |
| CCC(=O)N[C@@H](Cc1nc2ccc(C(C)C)cc2s1)C(=O)N[C@H](CNC(=O)C1CCN(CCO)CC1)C1CCCCC1 [Example 72] | 65.9 nM | – |
| CCC(=O)N[C@@H](Cc1ccc2ccccc2c1)C(=O)N[C@H](C(=O)N[C@@H](CCCCN)C(=O)NC(c1ccc(F)cc1)c1ccc(F)cc1)[C@@H](C)CC [Example 128] | 321 ± 32 nM | – |
| CCC(=O)N[C@@H](Cc1nc2ccc(C(C)C)cc2s1)C(=O)N[C@@H](CN)Cc1ccccc1 [Example 90] | – | > 5000 nM |
| CCC(=O)N[C@@H](Cc1nc(C)c(-c2ccc(Cl)cc2)s1)C(=O)N[C@H](CN)Cc1ccccc1 [Example 102] | 1280 nM | – |
| CC[C@H](C)[C@@H](CN)NC(=O)[C@H](Cc1nc2ccc(C(C)C)cc2s1)NC=O [Example 48, (S)—N-((2S,3S)-1-amino-3-methylpentan-2-yl)-2-formamido-3-(6-isopropylbenzo[d]thiazol-2-yl)propanamide] | – | > 5000 nM |
| CC[C@H](C)[C@H](NC(=O)[C@H](Cc1nc2ccc(C(C)C)cc2s1)NC(C)=O)C(N)=O [Example 7, (2S,3S)-2-((S)-2-acetamido-3-(6-isopropylbenzo[d]thiazol-2-yl)propanamido)-3-methylpentanamide] | 1040 ± 128 nM | – |
| CCC(=O)N[C@@H](Cc1ccc2ccccc2c1)C(=O)N[C@@H](CC(C)(C)C)C(=O)N[C@@H](CCCCN)C(=O)NC(c1ccccc1)c1ccccc1 [Example 22] | 361 nM | – |
| CCC(=O)N[C@@H](Cc1nc2ccc(C(C)C)cc2s1)C(=O)N[C@H](CNC(=O)C1CCN(CCF)CC1)C1CCCCC1 [Example 74] | 112 nM | – |
| CCC(=O)N[C@@H](Cc1nc2ccc(C(C)C)cc2s1)C(=O)N[C@H](CNC(=O)c1ccncc1)C1CCCCC1 [Example 61] | 128 nM | – |
| CCC(=O)N[C@@H](Cc1nc2ccc(C(C)C)cc2s1)C(=O)N[C@H](CN)C1CCCCC1 [Example 56, (S)—N—((S)-2-amino-1-cyclohexylethyl)-3-(6-isopropylbenzo[d]thiazol-2-yl)-2-propionamidopropanamide] | 79.6 nM | – |
| CCC(=O)N[C@@H](Cc1nc2ccc(C(C)C)cc2s1)C(=O)N[C@H](Cn1cc(CO)nn1)C1CCCCC1 [Example 83] | 656 nM | – |
| CC[C@H](C)[C@H](NC(=O)[C@H](Cc1nc2cc(Cl)ccc2s1)NC(C)=O)C(=O)N[C@@H](CCCCN)C(=O)N[C@@H](CC(C)C)C(N)=O [Example 3, (S)-2-((2S,3 S)-2-((S)-2-acetamido-3-(5-chlorobenzo[d]thiazol-2-yl)propanamido)-3-methylpentanamido)-6-amino-N—((S)-1-amino-4-methyl-1-oxopentan-2-yl)hexanamide] | 9.2 ± 1.4 nM | – |
| CCC(=O)N[C@@H](Cc1nc2ccc(C(C)C)cc2s1)C(=O)N[C@H](CNC(=O)C1CCN(CC)CC1)C1CCCCC1 [Example 70] | 45.1 nM | – |
| CC[C@H](C)[C@H](NC(=O)[C@H](Cc1nc2ccc(Cl)cc2s1)NC(C)=O)C(=O)N[C@@H](CCCCN)C(=O)N[C@@H](CC(C)C)C(N)=O [Example 4, (S)-2-((2S,3 S)-2-((S)-2-acetamido-3-(6-chlorobenzo[d]thiazol-2-yl)propanamido)-3-methylpentanamido)-6-amino-N—((S)-1-amino-4-methyl-1-oxopentan-2-yl)hexanamide] | 116 nM | – |
| CCC(=O)N[C@H](CNC(=O)C1(N)CCOCC1)Cc1nc2ccc(C(C)C)cc2s1 [Example 112] | 5060 nM | – |
| CCC(=O)N[C@@H](Cc1ccc2ccccc2c1)C(=O)N[C@H](C(=O)N[C@@H](CCCCN)C(=O)N[C@H]1CCc2ccccc21)[C@@H](C)CC [Example 14] | 1930 nM | – |
| CCC(=O)N[C@@H](Cc1nc2ccc(Cl)cc2s1)C(=O)N[C@H](C(=O)N[C@@H](CCCCN)C(=O)N[C@@H]1CCOc2ccccc21)C1CCOCC1 [Example 37] | 49 nM | – |

The remaining lines, values ahead:

| IC50 [1] | IC50 [2] | Compound |
| --- | --- | --- |
| 559 nM | – | CCC(=O)N[C@@H](Cc1nc2ccc(Cl)cc2s1)C(=O)N[C@H](CN)C1CCCC1 [Example 216] |
| – | > 10000 nM | CCC(=O)N[C@@H](Cc1ccc2ccccc2c1)C(=O)N[C@H](C(=O)N[C@@H](CCCCN)C(=O)N[C@@H](CN)c1ccccc1)C1CCCC1 [Example 151] |
| – | > 10000 nM | NCCNC(=O)[C@H](Cc1nc2ccc(Cl)cc2s1)NC(=O)CCOCc1ccccc1 [Example 238] |
| 103 nM | – | CCC(=O)N[C@@H](Cc1ccc2ccccc2c1)C(=O)N[C@H](C(=O)N[C@@H](CCCCN)C(=O)N[C@@H]1CCOc2cccc(Cl)c21)C1CCCC1 [Example 163] |
| 412 nM | – | CCC(=O)N[C@@H](Cc1nc2ccc(C)cc2s1)C(=O)N[C@H](C(=O)N[C@H](C(=O)N[C@@H]1CCOc2ccccc21)C1CCNCC1)C1CCOCC1 [Example 190] |
| – | > 5000 nM | CCC(=O)N[C@@H](Cc1nc2ccccc2n1C)C(=O)N[C@H](C(=O)N[C@@H](CCCCN)C(=O)NC(c1ccccc1)c1ccccc1)[C@@H](C)CC [Example 136] |
| 871 nM | – | CCC(=O)N[C@@H](Cc1ccc2ccccc2c1)C(=O)N[C@H](C(=O)N[C@@H](CCCCN1CCOCC1)C(=O)NC(c1ccc(F)cc1)c1ccc(F)cc1)C1CCCC1 [Example 141] |
| – | > 10000 nM | CCC(=O)N[C@H](Cc1nc2ccc(Cl)cc2s1)C(=O)N[C@H](C(=O)N[C@@H](CCCCN)C(=O)N[C@@H]1CCOc2ccccc21)C1CCOCC1 [Example 199] |
| 77.8 nM | – | CC[C@H](C)[C@H](NC(=O)[C@H](Cc1nc2ccc(C(C)C)cc2s1)NC(=O)C(C)C)C(=O)N[C@@H](CCCCN)C(=O)N[C@@H](CC(C)C)C(N)=O [Example 275] (Isobutyryl-[Ala(6-iPr-benzothiazol-2-yl)]IKL-NH2) |
| 278 nM | – | CNC(=O)N[C@@H](Cc1nc2ccc(Cl)cc2s1)C(=O)N[C@H](C(=O)N[C@@H](CCCCN)C(=O)N[C@@H]1CCOc2ccccc21)C1CCOCC1 [Example 209] |
| 611 nM | – | CCC(=O)N[C@@H](Cc1nc2ccc(Cl)cc2s1)C(=O)N[C@H](CNC(=O)[C@H](C)CN1CCOCC1)Cc1ccccc1 [Example 226] |
| 1200 nM | – | CCC(=O)N[C@@H](Cc1nc2ccc(Cl)cc2s1)C(=O)N[C@H](C(=O)N[C@@H](CCCCN)C(=O)NCc1cccnc1)C1CCOCC1 [Example 242] |
| 120 nM | – | CCC(=O)N[C@@H](Cc1nc2ccc(Cl)cc2o1)C(=O)N[C@H](C(=O)N[C@@H](CCCCN)C(=O)N[C@@H]1CCOc2ccccc21)C1CCOCC1 [Example 198] |
| – | > 10000 nM | CCC(=O)N[C@@H](Cc1nc2ccc(C(C)C)cc2s1)C(=O)N[C@H](C(=O)N[C@@H](CCCCN)C(=O)N[C@@H](CC(C)C)C(N)=O)C1CCNCC1 [Example 288] (Propionyl-[Ala(6-iPr-benzothiazol-2-yl)][Gly(piperidin-4-yl)]KL-NH2) |
| 265 nM | – | CCC(=O)N[C@@H](Cc1nc2ccc(OC)cc2o1)C(=O)N[C@H](C(=O)N[C@@H](CCCCN)C(=O)NC(c1ccccc1)c1ccccc1)[C@@H](C)CC [Example 157] |
